Results from ChEMBL document CHEMBL3763146 (J Med Chem, 2016).

Legend:
[1] = target: Sodium channel protein type 2 subunit alpha (Homo sapiens, UniProt Q99250); assay: Inhibition of human Nav1.2 channel expressed in Xenopus oocytes by two-intracellular microelectrode voltage clamp method; format: cell-based
[2] = Stability in human plasma assessed as parent compound remaining at 24 hrs by LC-MS analysis; format: ADME, cell-free; details: read-out: Stability
Rattus norvegicus [3] = assay: Increase in detrusor muscle relaxation in iv infused Sprague-Dawley rat acetic acid-induced bladder hyperreflexia model assessed as decrease in micturition pressure measured over 30 to 45 mins; format: functional, organism-based
[4] = target: Beta-3 adrenergic receptor (Rattus norvegicus) (UniProt P26255); assay: Agonist activity at rat beta3 adrenergic receptor expressed in CHO cells assessed as accumulation of cAMP after 30 mins by TR-FRET assay relative to (R)-(-)-isoproterenol; format: functional, cell-based
[5] = Fraction unbound in dog at 0.5 mg/kg, iv or 2 mg/kg, po; format: ADME, organism-based, Canis lupus familiaris; details: in vivo
[6] = Inhibition of rat choline transporter
[7] = target: T1, Beta-3 adrenergic receptor (Macaca mulatta, UniProt Q28524); assay: Agonist activity at rhesus monkey beta3 adrenergic receptor expressed in CHO cells assessed as accumulation of cAMP after 30 mins by TR-FRET assay; format: functional, cell-based
Canis familiaris [8] = assay: Dose normalized total AUC in dog at 2 mg/kg, po; format: ADME, organism-based, Canis lupus familiaris; details: in vivo
[9] = target: Beta-1 adrenergic receptor (Homo sapiens, UniProt P08588)
Description: Displacement of [125]I-cyanopindolol from recombinant human beta1 adrenergic receptor after 1 hr by scintillation counting method

[10] = Half life in rat at 1 mg/kg, iv or 2 mg/kg, po; format: ADME, organism-based; details: in vivo
[11] = target: Beta-3 adrenergic receptor (Macaca mulatta) (UniProt Q28524); assay: Agonist activity at rhesus monkey beta3 adrenergic receptor expressed in CHO cells assessed as accumulation of cAMP after 30 mins by TR-FRET assay relative to (R)-(-)-isoproterenol; format: functional, cell-based
Rhesus monkey [12] = assay: Dose normalized total AUC in rhesus monkey at 2 mg/kg, po; format: ADME, organism-based, Macaca mulatta; details: in vivo
[13] = target: T2, Beta-3 adrenergic receptor (Homo sapiens, UniProt P13945); assay: Agonist activity at human beta3 adrenergic receptor expressed in CHO cells assessed as accumulation of cAMP after 30 mins by TR-FRET assay; format: functional, cell-based
Target sequence in this assay (P13945 whole entry): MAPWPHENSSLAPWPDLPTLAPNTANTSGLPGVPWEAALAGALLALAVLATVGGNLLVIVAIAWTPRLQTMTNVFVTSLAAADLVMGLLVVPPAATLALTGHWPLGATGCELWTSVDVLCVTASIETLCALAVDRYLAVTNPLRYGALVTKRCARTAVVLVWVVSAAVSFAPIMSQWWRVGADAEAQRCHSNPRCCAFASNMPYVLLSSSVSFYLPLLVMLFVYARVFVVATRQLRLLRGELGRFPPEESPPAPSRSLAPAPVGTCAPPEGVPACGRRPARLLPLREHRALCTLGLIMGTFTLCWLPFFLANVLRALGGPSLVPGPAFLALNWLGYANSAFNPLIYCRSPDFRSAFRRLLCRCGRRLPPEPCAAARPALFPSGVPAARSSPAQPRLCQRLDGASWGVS

[14] = Plasma clearance in rat at 1 mg/kg, iv or 2 mg/kg, po; format: ADME, organism-based
Rattus norvegicus [15] = assay: Unbound clearance in rat at 1 mg/kg, iv or 2 mg/kg, po; format: ADME, organism-based; details: in vivo
[16] = Plasma clearance in rhesus monkey at 0.5 mg/kg, iv or 2 mg/kg, po; format: ADME, organism-based, Macaca mulatta
[17] = target: Beta-3 adrenergic receptor (Macaca mulatta) (UniProt Q28524); assay: Agonist activity at rhesus monkey beta3 adrenergic receptor expressed in CHO cells assessed as accumulation of cAMP after 30 mins by TR-FRET assay in presence of 40% serum relative to (R)-(-)-isoproterenol; format: functional, cell-based
[18] = Oral bioavailability in rhesus monkey at 2 mg/kg; format: ADME, organism-based, Macaca mulatta; details: in vivo
[19] = Stability in rat plasma assessed as parent compound remaining at 24 hrs by LC-MS analysis; format: ADME, cell-free; details: read-out: Stability
[20] = target: T2, Beta-3 adrenergic receptor; assay: Agonist activity at human beta3 adrenergic receptor expressed in CHO cells assessed as accumulation of cAMP after 30 mins by TR-FRET assay relative to (R)-(-)-isoproterenol; format: functional, cell-based
Target sequence in this assay (P13945 whole entry, looked up): as the sequence (P13945 whole entry) above

[21] = target: Beta-2 adrenergic receptor (Homo sapiens, UniProt P07550)
Description: Displacement of [125]I-cyanopindolol from human recombinant beta2 adrenergic receptor after 1 hr by scintillation counting method

[22] = Distribution coefficient, logD of the compound at pH 7.4; format: physicochemical; details: octanol/water
[23] = Half life in rhesus monkey at 0.5 mg/kg, iv or 2 mg/kg, po; format: ADME, organism-based, Macaca mulatta; details: in vivo
[24] = target: T3, Beta-3 adrenergic receptor (Rattus norvegicus, UniProt P26255); assay: Agonist activity at rat beta3 adrenergic receptor expressed in CHO cells assessed as accumulation of cAMP after 30 mins by TR-FRET assay; format: functional, cell-based
[25] = Intrinsic clearance in human liver microsomes; format: ADME; details: read-out: CLH
Rhesus monkey [26] = assay: Dose normalized fAUC in rhesus monkey at 2 mg/kg, po; format: ADME, organism-based, Macaca mulatta; details: in vivo
[27] = Stability in rhesus monkey plasma assessed as parent compound remaining at 24 hrs by LC-MS analysis; format: ADME, cell-free, Macaca mulatta; details: read-out: Stability
[28] = Fraction unbound in rat at 1 mg/kg, iv or 2 mg/kg, po; format: ADME, organism-based; details: in vivo
[29] = target: Voltage-dependent L-type calcium channel subunit alpha-1C (Homo sapiens, UniProt Q13936); assay: Displacement of [3H]-diltiazem from human Cav1.2 channel
Rhesus monkey [30] = assay: Unbound clearance in rhesus monkey at 0.5 mg/kg, iv or 2 mg/kg, po; format: ADME, organism-based, Macaca mulatta; details: in vivo
Canis familiaris [31] = assay: Dose normalized fAUC in dog at 2 mg/kg, po; format: ADME, organism-based, Canis lupus familiaris; details: in vivo
[32] = Intrinsic clearance in dog liver microsomes; format: ADME, Canis lupus familiaris; details: read-out: CLH
[33] = Stability in dog plasma assessed as parent compound remaining at 24 hrs by LC-MS analysis; format: ADME, cell-free, Canis lupus familiaris; details: read-out: Stability
[34] = target: Voltage-gated inwardly rectifying potassium channel KCNH2 (Homo sapiens, UniProt Q12809); assay: Binding affinity to human ERG channel
Canis familiaris [35] = assay: Unbound clearance in dog at 0.5 mg/kg, iv or 2 mg/kg, po; format: ADME, organism-based, Canis lupus familiaris; details: in vivo
[36] = Half life in dog at 0.5 mg/kg, iv or 2 mg/kg, po; format: ADME, organism-based, Canis lupus familiaris; details: in vivo
[37] = target: Beta-3 adrenergic receptor (Canis lupus familiaris, UniProt O02662); assay: Agonist activity at dog beta3 adrenergic receptor expressed in CHO cells assessed as accumulation of cAMP after 30 mins by TR-FRET assay; format: functional, cell-based
[38] = Fraction unbound in rhesus monkey at 0.5 mg/kg, iv or 2 mg/kg, po; format: ADME, organism-based, Macaca mulatta; details: in vivo
[39] = target: Sodium-dependent serotonin transporter (Homo sapiens, UniProt P31645); assay: Inhibition of human SERT expressed in HEK293 cells preincubated for 30 mins followed by fluorescent substrate addition measured after 30 mins by plate reader analysis; format: cell-based
[40] = Induction of phospholidosis in human HepG2 cells incubated overnight by […] in presence of fluorescent labeled phospholipid probe NBD-PE; format: cell-based; details: read-out: A50
Rattus norvegicus [41] = assay: Increase in detrusor muscle relaxation in iv infused Sprague-Dawley rat acetic acid-induced bladder hyperreflexia model assessed as increase in functional bladder capacity measured over 30 to 45 mins; format: organism-based
[42] = Intrinsic clearance in rhesus monkey liver microsomes; format: ADME, Macaca mulatta; details: read-out: CLH
[43] = target: T2, Beta-3 adrenergic receptor; assay: Agonist activity at human adrenergic beta3 receptor expressed in CHO cells assessed as accumulation of cAMP after 30 mins by TR-FRET assay in presence of 40% serum; format: functional, cell-based
Target sequence in this assay (P13945 whole entry): as above

[44] = Oral bioavailability in rat at 2 mg/kg; format: ADME, organism-based; details: in vivo
[45] = target: T2, Beta-3 adrenergic receptor; assay: Agonist activity at human adrenergic beta3 receptor expressed in CHO cells assessed as accumulation of cAMP after 30 mins by TR-FRET assay in presence of 40% serum relative to (R)-(-)-isoproterenol; format: functional, cell-based
Target sequence in this assay (P13945 whole entry, looked up): as the sequence (P13945 whole entry) above

[46] = Oral bioavailability in dog at 2 mg/kg; format: ADME, organism-based, Canis lupus familiaris; details: in vivo
[47] = target: Beta-3 adrenergic receptor (Rattus norvegicus) (UniProt P26255); assay: Agonist activity at rat beta3 adrenergic receptor expressed in CHO cells assessed as accumulation of cAMP after 30 mins by TR-FRET assay in presence of 40% serum relative to (R)-(-)-isoproterenol; format: functional, cell-based
[48] = target: T3, Beta-3 adrenergic receptor; assay: Agonist activity at rat beta3 adrenergic receptor expressed in CHO cells assessed as accumulation of cAMP after 30 mins by TR-FRET assay in presence of 40% serum; format: functional, cell-based
Rattus norvegicus [49] = assay: Dose normalized fAUC in rat at 2 mg/kg, po; format: ADME, organism-based; details: in vivo
[50] = Plasma clearance in dog at 0.5 mg/kg, iv or 2 mg/kg, po; format: ADME, organism-based, Canis lupus familiaris
Rattus norvegicus [51] = assay: Dose normalized total AUC in rat at 2 mg/kg, po; format: ADME, organism-based; details: in vivo
[52] = Intrinsic clearance in rat liver microsomes; format: ADME; details: read-out: CLH
[53] = target: T1, Beta-3 adrenergic receptor; assay: Agonist activity at rhesus monkey beta3 adrenergic receptor expressed in CHO cells assessed as accumulation of cAMP after 30 mins by TR-FRET assay in presence of 40% serum; format: functional, cell-based

T3 sequence (P26255 whole entry): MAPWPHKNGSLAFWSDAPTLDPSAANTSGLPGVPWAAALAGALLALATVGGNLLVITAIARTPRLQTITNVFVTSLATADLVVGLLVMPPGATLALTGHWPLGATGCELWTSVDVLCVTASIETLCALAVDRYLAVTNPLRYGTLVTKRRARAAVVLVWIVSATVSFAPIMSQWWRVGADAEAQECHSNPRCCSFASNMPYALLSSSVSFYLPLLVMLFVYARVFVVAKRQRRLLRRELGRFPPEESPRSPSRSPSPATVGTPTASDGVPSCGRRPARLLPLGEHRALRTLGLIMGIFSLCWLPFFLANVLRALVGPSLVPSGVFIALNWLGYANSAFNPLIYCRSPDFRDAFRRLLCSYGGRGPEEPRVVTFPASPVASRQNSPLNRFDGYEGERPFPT
Sequence of Beta-3 adrenergic receptor (Rattus norvegicus) (P26255 whole entry): as above
Sequence of Beta-3 adrenergic receptor (Macaca mulatta) (Q28524 whole entry): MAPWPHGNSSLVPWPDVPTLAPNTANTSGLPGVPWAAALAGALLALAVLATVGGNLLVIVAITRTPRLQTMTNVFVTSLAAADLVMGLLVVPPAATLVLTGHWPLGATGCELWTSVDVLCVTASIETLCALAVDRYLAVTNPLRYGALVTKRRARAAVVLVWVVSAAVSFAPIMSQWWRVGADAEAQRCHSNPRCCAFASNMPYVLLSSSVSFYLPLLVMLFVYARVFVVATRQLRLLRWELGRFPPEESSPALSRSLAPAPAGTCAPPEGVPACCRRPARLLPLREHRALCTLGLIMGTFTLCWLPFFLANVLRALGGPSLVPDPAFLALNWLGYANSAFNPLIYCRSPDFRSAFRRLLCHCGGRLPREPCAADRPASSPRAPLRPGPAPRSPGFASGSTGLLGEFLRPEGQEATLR
T1 sequence (Q28524 whole entry): as above
Sequence of Sodium channel protein type 2 subunit alpha (Q99250 whole entry, looked up): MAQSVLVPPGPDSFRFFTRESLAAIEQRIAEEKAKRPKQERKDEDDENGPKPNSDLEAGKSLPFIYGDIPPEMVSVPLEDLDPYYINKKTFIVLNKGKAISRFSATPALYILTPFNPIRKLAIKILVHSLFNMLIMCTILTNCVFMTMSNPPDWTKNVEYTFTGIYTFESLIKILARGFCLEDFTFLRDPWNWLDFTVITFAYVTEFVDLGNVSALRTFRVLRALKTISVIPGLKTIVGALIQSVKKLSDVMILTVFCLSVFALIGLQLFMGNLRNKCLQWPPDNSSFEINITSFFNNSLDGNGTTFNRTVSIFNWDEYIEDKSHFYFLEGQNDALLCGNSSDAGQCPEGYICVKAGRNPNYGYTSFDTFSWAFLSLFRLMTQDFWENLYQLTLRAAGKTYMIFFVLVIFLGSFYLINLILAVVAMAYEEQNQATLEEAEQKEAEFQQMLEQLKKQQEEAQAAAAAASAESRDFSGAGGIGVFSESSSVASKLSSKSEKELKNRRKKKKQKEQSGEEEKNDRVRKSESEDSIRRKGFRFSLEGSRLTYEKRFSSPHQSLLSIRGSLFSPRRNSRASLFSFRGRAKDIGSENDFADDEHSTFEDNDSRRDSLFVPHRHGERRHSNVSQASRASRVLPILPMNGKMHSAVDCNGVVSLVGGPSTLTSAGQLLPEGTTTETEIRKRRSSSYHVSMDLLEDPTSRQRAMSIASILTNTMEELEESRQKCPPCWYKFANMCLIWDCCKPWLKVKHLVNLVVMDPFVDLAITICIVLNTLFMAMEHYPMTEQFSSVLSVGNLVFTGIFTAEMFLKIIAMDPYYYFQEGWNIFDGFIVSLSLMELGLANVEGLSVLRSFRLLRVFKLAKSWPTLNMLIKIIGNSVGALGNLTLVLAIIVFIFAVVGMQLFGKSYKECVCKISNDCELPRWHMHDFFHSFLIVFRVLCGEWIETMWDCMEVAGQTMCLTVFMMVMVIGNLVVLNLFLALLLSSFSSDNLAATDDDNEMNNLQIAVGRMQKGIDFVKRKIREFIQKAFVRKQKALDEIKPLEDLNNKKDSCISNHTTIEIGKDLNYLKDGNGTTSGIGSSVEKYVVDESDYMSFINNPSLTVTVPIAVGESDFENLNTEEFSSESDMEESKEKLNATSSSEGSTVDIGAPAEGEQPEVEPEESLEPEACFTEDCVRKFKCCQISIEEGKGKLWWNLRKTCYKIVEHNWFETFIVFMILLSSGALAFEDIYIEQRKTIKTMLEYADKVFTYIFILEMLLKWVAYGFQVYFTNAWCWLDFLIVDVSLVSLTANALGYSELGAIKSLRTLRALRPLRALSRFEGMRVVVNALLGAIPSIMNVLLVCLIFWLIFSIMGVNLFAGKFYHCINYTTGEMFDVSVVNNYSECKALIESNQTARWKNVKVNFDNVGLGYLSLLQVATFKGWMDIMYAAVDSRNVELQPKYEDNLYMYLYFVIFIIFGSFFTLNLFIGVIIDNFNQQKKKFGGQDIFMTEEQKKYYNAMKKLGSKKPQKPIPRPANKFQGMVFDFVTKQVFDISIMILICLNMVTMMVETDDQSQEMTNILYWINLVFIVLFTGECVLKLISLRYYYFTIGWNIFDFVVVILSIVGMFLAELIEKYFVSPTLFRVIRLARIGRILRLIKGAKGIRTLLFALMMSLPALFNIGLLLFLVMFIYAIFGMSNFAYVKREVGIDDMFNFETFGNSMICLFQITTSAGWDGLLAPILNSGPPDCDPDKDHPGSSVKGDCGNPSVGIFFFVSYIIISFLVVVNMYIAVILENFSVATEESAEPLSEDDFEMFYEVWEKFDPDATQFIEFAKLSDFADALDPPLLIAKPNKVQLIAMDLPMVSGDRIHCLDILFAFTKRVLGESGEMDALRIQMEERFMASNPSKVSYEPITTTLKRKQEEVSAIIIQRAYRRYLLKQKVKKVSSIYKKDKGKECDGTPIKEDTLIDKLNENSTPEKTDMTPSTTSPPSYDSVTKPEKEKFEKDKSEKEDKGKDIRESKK
Sequence of Sodium-dependent serotonin transporter (P31645 whole entry): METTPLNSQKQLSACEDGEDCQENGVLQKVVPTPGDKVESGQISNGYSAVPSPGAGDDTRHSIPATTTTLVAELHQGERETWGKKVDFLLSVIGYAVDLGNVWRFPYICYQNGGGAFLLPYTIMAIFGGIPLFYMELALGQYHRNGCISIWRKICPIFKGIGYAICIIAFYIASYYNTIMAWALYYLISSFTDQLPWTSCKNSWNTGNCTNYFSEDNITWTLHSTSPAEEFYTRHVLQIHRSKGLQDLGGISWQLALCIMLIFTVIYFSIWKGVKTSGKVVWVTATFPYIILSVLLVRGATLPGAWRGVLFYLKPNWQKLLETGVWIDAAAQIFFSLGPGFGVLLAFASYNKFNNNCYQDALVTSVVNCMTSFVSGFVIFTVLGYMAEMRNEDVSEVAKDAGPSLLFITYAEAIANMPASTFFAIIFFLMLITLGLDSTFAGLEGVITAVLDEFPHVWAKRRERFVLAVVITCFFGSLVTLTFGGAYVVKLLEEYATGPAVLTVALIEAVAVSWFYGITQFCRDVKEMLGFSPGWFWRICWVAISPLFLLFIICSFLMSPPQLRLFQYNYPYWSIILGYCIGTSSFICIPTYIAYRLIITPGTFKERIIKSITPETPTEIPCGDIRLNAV
Sequence of Beta-3 adrenergic receptor (Canis lupus familiaris, UniProt O02662) (O02662 whole entry): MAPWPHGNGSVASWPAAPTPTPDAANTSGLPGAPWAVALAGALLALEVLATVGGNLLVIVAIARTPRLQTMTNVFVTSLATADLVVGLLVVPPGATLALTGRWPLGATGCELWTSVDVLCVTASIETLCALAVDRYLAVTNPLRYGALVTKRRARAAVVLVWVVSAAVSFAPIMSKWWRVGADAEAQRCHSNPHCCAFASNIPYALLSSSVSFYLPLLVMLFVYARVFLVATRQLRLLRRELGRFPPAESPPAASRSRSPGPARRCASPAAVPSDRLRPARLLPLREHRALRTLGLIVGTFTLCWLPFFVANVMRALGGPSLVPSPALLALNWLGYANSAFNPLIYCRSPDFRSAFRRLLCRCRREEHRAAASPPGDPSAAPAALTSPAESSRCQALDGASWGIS
Sequence of Beta-1 adrenergic receptor (P08588 whole entry): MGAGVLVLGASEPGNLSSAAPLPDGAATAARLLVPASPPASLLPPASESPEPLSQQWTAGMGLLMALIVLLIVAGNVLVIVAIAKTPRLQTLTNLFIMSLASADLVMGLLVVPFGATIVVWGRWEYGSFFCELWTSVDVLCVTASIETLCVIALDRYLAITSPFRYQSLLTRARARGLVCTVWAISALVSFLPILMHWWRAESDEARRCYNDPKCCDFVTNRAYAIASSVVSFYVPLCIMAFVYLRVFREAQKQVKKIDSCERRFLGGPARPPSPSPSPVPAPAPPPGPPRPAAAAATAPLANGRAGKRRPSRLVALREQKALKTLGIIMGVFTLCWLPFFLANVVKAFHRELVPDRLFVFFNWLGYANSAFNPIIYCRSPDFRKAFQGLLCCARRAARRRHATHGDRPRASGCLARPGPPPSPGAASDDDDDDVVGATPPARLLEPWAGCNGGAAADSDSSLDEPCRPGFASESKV

Structure (SMILES): C[C@@H](C(=O)Nc1ccc(C[C@@H]2CC[C@H]([C@H](O)c3ccccc3)N2)cc1)n1ncccc1=O
- IC50 [1]: > 30000 nM
- remaining at 24 h [2]: 100%
- Activity (Rattus norvegicus [3]): Dose-dependent effect
- max activation [4]: 85%
- fraction unbound [5]: 0.39
- IC50 [6]: 2300 nM
- EC50 [7]: 2.5 nM
- AUC/dose (Canis familiaris [8]): 290 nM·h/mg/kg
- IC50 [9]: > 20000 nM
- half-life [10]: 2 h
- max activation [11]: 91%
- AUC/dose (Rhesus monkey [12]): 300 nM·h/mg/kg
- EC50 [13]: 2.7 nM
- clearance [14]: 36 mL/min/kg
- CL free (Rattus norvegicus [15]): 180 mL/min/kg
- clearance [16]: 33 mL/min/kg
- max activation [17]: 91%
- bioavailability [18]: 29%
- remaining at 24 h [19]: 95%
- max activation [20]: 92%
- IC50 [21]: > 20000 nM
- logD [22]: 1.3
- half-life [23]: 9 h
- EC50 [24]: 531 nM
- CLint scaled [25]: 10 mL/min/kg
- fAUC/dose (Rhesus monkey [26]): 213 nM·h/mg/kg
- remaining at 24 h [27]: 99%
- fraction unbound [28]: 0.2
- IC50 [29]: > 30000 nM
- CL free (Rhesus monkey [30]): 46 mL/min/kg
- fAUC/dose (Canis familiaris [31]): 113 nM·h/mg/kg
- CLint scaled [32]: 34 mL/min/kg
- remaining at 24 h [33]: 77%
- IC50 [34]: > 30000 nM
- CL free (Canis familiaris [35]): 59 mL/min/kg
- half-life [36]: 9 h
- EC50 [37]: 39 nM
- fraction unbound [38]: 0.71
- IC50 [39]: > 10000 nM
- AC50 [40]: 42000 nM
- Activity (Rattus norvegicus [41]): Dose-dependent effect
- CLint scaled [42]: 17 mL/min/kg
- EC50 [43]: 2.1 nM
- bioavailability [44]: 10%
- max activation [45]: 98%
- bioavailability [46]: 91%
- max activation [47]: 83%
- EC50 [48]: 245 nM
- fAUC/dose (Rattus norvegicus [49]): 20 nM·h/mg/kg
- clearance [50]: 23 mL/min/kg
- AUC/dose (Rattus norvegicus [51]): 100 nM·h/mg/kg
- CLint scaled [52]: 31 mL/min/kg
- EC50 [53]: 12 nM
